Legend:
in vivo = conditions: male, Sprague-Dawley, rat; for Kp at 60 min: R (ratio of concentration between CSF and bloodstream)
Procedure: Male Sprague-Dawley rats (200–250 g) were purchased from the Charles River laboratories (Calco, Italy). BCA was administered to rats by intravenous and oral routes in order to evaluate the pharmacokinetic profiles in the bloodstream and cerebrospinal fluid (CSF). For the intravenous administration, BCA EO (84% w/w BCA content) was dissolved in ethanol to obtain a final BCA concentration of 8 mg/mL. A group (n = 4) of rats, fasted for 24 h, was anesthetized during the experimental period and then received via a femoral intravenous infusion (rate = 10 μL/min; 5 min) 50 µL of the 8 mg/mL ethanolic solution (BCA dose 2 mg/kg). This dosage was chosen basing on a previous study where BCA was intravenously administered to rats at a dose of about 1.5 mg/kg as a minor component of Artemisiae argyi Folium EO (5.3% w/w). For oral administration, BCA EO was dissolved in corn oil to obtain a final BCA concentration of 20 mg/mL. A total of 500 µL of this corn oil solution was orally administered by gavage to a group (n = 4) of rats kept fasting for 24 h (BCA dose 50 mg/kg).
At the end of the intravenous and oral administrations and at fixed time points, blood samples (100 μL) were collected. Moreover, CFS samples (about 30 μL) were withdrawn using the cisternal puncture method previously described. This method requires a single needle stick and allows the collection of serial (about 30 μL) CSF samples that are virtually blood-free. A total volume of a maximum of 120 μL of CSF/rat (i.e., four 30 μL samples/rat) was collected during the experimental session, choosing the time points (n = 4) to allow the restoration of the CSF physiological volume. The CSF samples (10 μL) were immediately analyzed via HPLC (see below) for the quantification of BCA. For the BCA analysis in the bloodstream, the blood samples (n = 4) were immediately added to 200 μL of ice-cold CH3CN, then 100 μL of the internal standard dissolved in CH3CN (100 μM GER-UDCA, obtained by the conjugation of geraniol with ursodeoxycholic acid) was further inserted. The samples were centrifuged at 16,000× g for 5 min, then about 300 μL of the supernatant was withdrawn and further centrifuged. Finally, 10 μL was analyzed via HPLC (see below) for BCA quantification. A blood sample (100 μL) was collected from each rat before the administration of the compound and was used as a control. The control samples were immediately added to 300 μL of ice-cold CH3CN in the absence of the internal standard and then treated as described above.
The BCA was quantified by the HPLC method, using a chromatographic apparatus that consisted of a modular system (model LC-10 AD VD pump and model SPD-10A VP variable wavelength UV−vis detector; Shimadzu, Kyoto, Japan) and an injection valve with a 20 μL sample loop (model 7725; Rheodyne, IDEX, Torrance, CA, USA). The separations were performed on a 5 μm Hypersil BDS C-18 column (150 mm × 4.6 mm i.d.; ThermoFisher Scientific S.p.A., Milan, Italy) equipped with a guard column packed with the same Hypersil material at room temperature by injecting 10 µL of the samples into the apparatus. Data were acquired and processed using CLASS-VP software, version 7.2.1 (Shimadzu Italia, Milan, Italy), installed on a personal computer. The mobile phase consisted of an isocratic mixture of water and acetonitrile at a ratio of 10:90 (v/v), with a flow rate of 1 mL/min. The detector was set at 205 nm. The retention times obtained were 7.5 min for BCA and 5.6 min for GER-UDCA.
The chromatographic precision was evaluated by repeated analyses (n = 6) of the same sample solution containing 100 μM (20.435 µg/mL) BCA dissolved in a mixture of water and CH3CN 25:75 (v/v). The chromatographic precision, expressed as the relative standard deviation (RSD) value, was 0.84%. […]

HMC3 cells = experiment: Quantitative real-time PCR of mRNA levels; type: cell-based, human; conditions: 24 h
Procedure: (§1) An analysis of the genes involved in angiogenesis, tumor progression and proliferation were performed. In particular, we analyzed the genes involved in the cell cycle and in three different apoptotic pathways: B-cell lymphoma-2 (BCL2), Bcl-2-like protein 1 (BCL2L1), Bcl-2 Associated X-protein (BAX), BCL2 Antagonist/Killer 1 (BAK-1) and Caspase 9 (CASP9) as the key genes of the intrinsic mitochondrial pathway; and Phosphatase and tensin homolog (PTEN), Tumor protein p53 (TP53), Murine double minute 2 (MDM2), Cyclin-dependent kinase 4 (CDK4) and Vascular endothelial growth factor A (VEGFA) mRNA levels were assessed by quantitative real-time PCR (qRT-PCR). HMC3 and U87 cells were seeded with a density of 1 × 10^6 cells per well and incubated for 24 h at 37 °C and 5% CO2. Thereafter, the cells were treated either with EU (200 μM) or BCA (125 μM) alone and in combination (EU 200 μM + BCA 125 μM). Total RNA was extracted using the TripleXtractor solution (GRISP, Lisbon, Portugal) according to the manufacturer's protocol. RNA was converted into cDNA through the […] Synthesis Supermix (GRISP, Lisbon, Portugal). Each optimized reaction was performed using […] SYBR Green Mastermix 2X with […], Lisbon, Portugal) and subjected to the amplification protocol described by the manufacturer, using a melting temperature of 60 °C. The relative gene expression was determined by the 2^-ΔΔCt method and normalized on Glyceraldehyde-3-Phosphate Dehydrogenase (GAPDH), which was the endogenous reference and relative to the untreated cells (control condition).

U87 cells = experiment: Quantitative real-time PCR of mRNA levels; type: cell-based, human; conditions: 24 h
Procedure: as §1

[1] = rat, in vivo, cited from earlier work
[2] = iv, 2 mg/kg, cerebrospinal fluid (CSF)
[3] = po, 50 mg/kg, cerebrospinal fluid (CSF)
[4] = EU 200 µM, BCA 125 µM, alone or in combination

C=C1CC/C=C(\C)CC[C@@H]2[C@@H]1CC2(C)C [BCA, β-Caryophyllene]
bioavailability (in vivo; F (absolute bioavailability)): 2.11 ± 0.03% | half-life (in vivo; iv, 2 mg/kg): 49.7 ± 2 min | time at which CSF concentration decreased to zero (in vivo; iv, 2 mg/kg): ≤ 150 min | time at which bloodstream concentration decreased to zero (in vivo; iv, 2 mg/kg): ≤ 180 min | AUC (in vivo; iv, 2 mg/kg, bloodstream): 108000 ng·h/mL | AUC (in vivo; [2]): 6290 ng·h/mL | Cmax (in vivo; [2]): 8000 ± 800 ng/mL | Kp at 60 min (in vivo; iv, 2 mg/kg): 0.08 ± 0.01 | Kp at 30 min (in vivo; iv, 2 mg/kg, R (ratio of concentration between CSF and bloodstream) at CSF Tmax): 0.13 ± 0.01 | Tmax (in vivo; [2]): 30 min | Cmax, bloodstream (in vivo; po, 50 mg/kg): 22530 ± 90 ng/mL | time at which CSF concentration decreased to zero (in vivo; po, 50 mg/kg): 120 min | time at which bloodstream concentration decreased to 0 (in vivo; po, 50 mg/kg): 300 min | R (ratio of concentration between CSF and bloodstream) at CSF Tmax (in vivo; po, 50 mg/kg, 90 min): 0.019 ± 0.002 | AUC (in vivo; po, 50 mg/kg, bloodstream): 56800 ng·h/mL | AUC (in vivo; [3]): 313 ng·h/mL | Cmax (in vivo; po, 50 mg/kg, bloodstream): 22500 ± 900 ng/mL | Cmax (in vivo; [3]): 420 ± 40 ng/mL | Kp at 60 min (in vivo; po, 50 mg/kg): ~0.01 | Kp at 90 min (in vivo; po, 50 mg/kg, R (ratio of concentration between CSF and bloodstream) at CSF Tmax): ~0.02 | Tmax (in vivo; po, 50 mg/kg, bloodstream): 60 min | Tmax (in vivo; [3]): 90 min | PTEN mRNA expression, change vs control (HMC3 cells; EU 200 µM or BCA 125 µM): no effect | BAK1 mRNA expression, change vs control (HMC3 cells; [4]): +59.8% | BCL2 mRNA expression, change vs control (HMC3 cells; [4]): −56.2% | CDK4 mRNA levels, change vs control (HMC3 cells; [4]): no effects | MDM2 mRNA expression, change vs control (HMC3 cells; [4]): +34.2% | TP53 mRNA expression, change vs control (HMC3 cells; [4]): +155.5% | VEGFA mRNA expression, change vs control (HMC3 cells; [4]): −57% | PTEN mRNA expression, change vs control (U87 cells; EU 200 µM or BCA 125 µM): +171.8% | BAK1 mRNA expression, change vs control (U87 cells; [4]): +129.6% | BAX mRNA expression, change vs control (U87 cells; [4]): +35.0% | BCL2L1 mRNA expression, change vs control (U87 cells; [4]): −42.2% | BCL2 mRNA expression, change vs control (U87 cells; [4]): −54.8% | CASP9 mRNA expression, change vs control (U87 cells; [4]): +98.5% | MDM2 mRNA expression, change vs control (U87 cells; [4]): −49.3% | TP53 mRNA expression, change vs control (U87 cells; [4]): +506.4% | VEGFA mRNA expression, change vs control (U87 cells; [4]): −56.5% | CDK4 mRNA levels, change vs control (U87 cells; EU 200 µM, BCA 125 µM, alone or in combination, normalized to GAPDH): no effects | oral acute LD50 ([1]; po): over 5000 mg/kg | No Observed Adverse Effect Level (NOAEL) dose [1]: 700 mg/kg

— PMC11720353, “Clove Essential Oil as a Source of Antitumoral Compounds Capable of Crossing the Blood–Brain Barrier: A Focus on the Effects of β-Caryophyllene and Eugenol in a Glioblastoma Cell Line” (International Journal of Molecular Sciences, 2024)
